# In patent publication US11839679B2, “Gamma-diketones for treatment and prevention of aging skin and wrinkles” (BioSplice Therapeutics, Inc., priority 2014, dated 2023):
# System: fine lines, wrinkles in the outer canthus of the eyes (crow's feet area)
# Assay: Change in Roughness and Wrinkle Depth via Visioscan, Example 2
# Assay type: in vivo, human
# Conditions: Topical 0.05% in Oil (Cohort 2), 21 test subjects
# Text: Surface Evaluation of Living Skin Visioscan: The Visioscan (Courage and Khazaka) took a direct image of the living skin using a measuring head containing a CCD-camera and two metal halogen lamps positioned opposite each other in order to ensure even illumination of the measuring field on the skin (Skin Pharmacol Appl Skin Physiol (1999), 12(1-2), 1-11 and Cosmetic & Toiletries magazine (2009), 124(6), 51-54). The grey level distribution of the pixels in the image correspond to different phenomena (white pixels represent desquamation on the skin, dark pixels represent lines and wrinkles). The software with the Visioscan automatically calculates skin smoothness, skin roughness, scaliness and wrinkle parameters. Visioscan images were taken at the following time points: Baseline Day 0 (beginning of the study), Week 2, Week 4, Week 8, and Week 12 (end of the test).
# The source data was Visioscan and PhotoGrammetrix Image Analysis readings along with subjective assessments, which were totaled and reported as average scores. Photographs were placed side by side as to compare the photographs of before and after application of the test product in the eye area. Wrinkle reduction analysis source data consisted of crow's feet area quantification in relative units (px), collected at baseline and, the week 2, 4, 8 and 12 evaluations. The data obtained via Visioscan and from PhotoGrammetrix Image Analysis was quoted as % differences from baseline at each of the previously described time points. A paired t-test analysis was conducted in order to compare the results of post test product application measurements to baseline measurements where applicable. Statistical significance was established if p≤(α=0.05) was calculated.
# Four groups of women were recruited to evaluate and compare the efficacy of four anti-aging test products (targeting the periorbital eye area) intended to reduce the appearance of fine lines, wrinkles in the outer canthus of the eyes (crow's feet area) over a 12 week period. Wrinkle assessment was conducted instrumentally using a Visioscan image analysis system. Effectiveness of the test product was evaluated using panelist self-assessment via questionnaire responses. Each stage in the progression of treatments was photographically documented using High Resolution Scientifically Matched Photography technique. Image analysis was utilized to quantify changes in fine lines and crow's feet condition observed in the Scientifically Matched Photographs.
# Subject Selection: • Number: Eighty three subjects (twenty or twenty one per group) to complete the study. • Sex: Females • Race: Caucasian/Asian/Hispanic • Age Range: 40 through 60 years old
# Test samples: • Topical 0.15% of Compound #222 in Oil (a 50/50 mixture of Propylene Glycol Dicaprylate/Dicaprate and Caprylic/Capric Triglyceride) (Cohort 1) • Topical 0.05% of Compound #222 in Oil (a 50/50 mixture of Propylene Glycol Dicaprylate/Dicaprate and Caprylic/Capric Triglyceride) (Cohort 2) • Topical 0.15% of Compound #222 in PEG400 (Cohort 3) • Topical 0.05% of Compound #222 in PEG400 (Cohort 4)
# The testing protocol and evaluation was the same as in Example 1.
smiles,measurement,setting,value
O=C(CCC(=O)c1ccc2c(c1)OCO2)c1ccccc1 [#222],"% Change in Roughness, Mean",Week 8 vs baseline,−32.9%
same,"% Change in Roughness, Median",Week 8 vs baseline,−33.9%
same,"% Change in Wrinkle Depth, Mean",Week 8 vs baseline,−58.0%
same,"% Change in Wrinkle Depth, Median",Week 8 vs baseline,−59.3%
same,"Change in Roughness, Mean",Week 8 vs baseline,−0.85
same,"Change in Roughness, Median",Week 8 vs baseline,−0.67
same,"Change in Wrinkle Depth (×10^4), Mean",Week 8 vs baseline,−0.89 ×10^4
same,"Change in Wrinkle Depth (×10^4), Median",Week 8 vs baseline,−0.79 ×10^4
same,"% Change in Roughness, Mean",Week 12 vs baseline,−39.3%
same,"% Change in Roughness, Median",Week 12 vs baseline,−40.9%
same,"% Change in Wrinkle Depth, Mean",Week 12 vs baseline,−54.1%
same,"% Change in Wrinkle Depth, Median",Week 12 vs baseline,−63.5%
same,"Change in Roughness, Mean",Week 12 vs baseline,−1.01
same,"Change in Roughness, Median",Week 12 vs baseline,−0.79
same,"Change in Wrinkle Depth (×10^4), Mean",Week 12 vs baseline,−0.92 ×10^4
same,"Change in Wrinkle Depth (×10^4), Median",Week 12 vs baseline,−0.85 ×10^4
